In US20240166645A1, “PYRIDOPYRIMIDINONE DERIVATIVE, PREPARATION METHOD THEREFOR, AND USE THEREOF” (Wuhan Humanwell Innovative Drug Research and Development …, priority 2021, published 2024):

Tests used:
[1] = tested on: LOVO colorectal cancer; test: LOVO colorectal cancer in vivo efficacy test; set-up: species or system mice; conditions: 25 mg/kg BID
Procedure: (§1) After one week of adaptive feeding of mice, LOVO cells in a log phase were resuspended in serum-free F12K, 5×10^6 LOVO cells were inoculated subcutaneously at the right flank at 100 μL per mouse, and tumor growth was observed regularly. When the tumor grew to an average volume of 150 to 200 mm^3, the mice were randomly divided into a model group and an administration group based on the tumor size and body weight. The tumor size and body weight were measured and recorded before and during the administration. After the treatment, the tumor size in the model group was compared with that in the administration group to determine the efficacy.

[2] = tested on: H358 cells; test: Inhibition of 3D cell proliferation (3D CellTiter-Glo); format: cell-based; conditions: Homo sapiens, NCI-H358, 168 h, read-out: IC50 (nM), inhibition of 3D proliferation of H358 cells, 7 days
Procedure: H358 cells were seeded in a T75 culture flask and cultured in a RPMI 1640 medium containing 10% FBS for 2 days for subsequent experiments in which the cells would be cultured or seeded on a 384-well plate.
On day 1, the cells were seeded on the 384-well plate, with 40 μL of medium added per well and serially diluted compounds or DMSO added per well, and an additional well without seeded cells but with medium was set up as a blank control. After culture at 37° C., 5% CO2 for 7 days, the plate was added with 3D CellTiter-Glo reagent (Promega, Cat. No. G9683) on day 8, shaken at 320 rpm for 20 min, and left at room temperature for 2 h. Luminescence signals were read on a multifunctional microplate reader. Cell viability inhibition rate was calculated as:
Cell viability inhibition rate=(DMSO group−test compound)/(DMSO group−blank control group)×100%
(§2) IC50 values were calculated using Graphpad 5 software.

[3] = target: KRAS G12C-SOS1 (Homo sapiens (Human), UniProt Q07889); test: Inhibition test of compounds on KRAS G12C::SOS1 binding; conditions: GST-KRAS G12C, His-SOS1
Procedure: The compound to be tested was prepared into a 10 mM stock solution with DMSO, and the compound was serially diluted using 1× test buffer. 0.1 μL of the compound solution with different concentrations was transferred to a 384-well plate. […] 5 μL of His-SOS1 was added to the 384-well plate, centrifuged at 1000 rpm for 1 min, and incubated at room temperature for 15 min.
After incubation, 10 μL of a mixed solution of anti-6his-Tb monoclonal antibody (Cisbio, Cat. No. 61HI2TLA) and anti-GST-XL665 monoclonal antibody (Cisbio, Cat. No. 61GSTXLA) was added to the test well, centrifuged at 1000 rpm for 1 min, and incubated at room temperature for 1 h.
After incubation, the fluorescence signal ratios at 665 nm and 615 nm were read on a multifunctional microplate reader (Perkin Elmer, Envision 2104), and the IC50 values were calculated using Graphpad 5 software.

[4] = Pharmacokinetic test in mice; format: in vivo; conditions: mouse, plasma; male ICR mice, oral gavage, 10 mg/kg
Procedure: Male ICR mice (20 to 25 g) were used and fasted overnight. Three mice were taken and orally administered by gavage (10 mg/kg). Blood was collected before the administration, and at 15 min, 30 min, 1 h, 2 h, 4 h, 8 h and 24 h after the administration. 6,800 g of the blood samples were centrifuged at 2 to 8° C. for 6 min, and plasma was collected and stored at −80° C. The plasma at each time point was taken and added with an acetonitrile solution containing internal standard in 3 to 5 times the amount, vortexed and mixed for 1 min, and centrifuged at 13,000 rpm/min at 4° C. for 10 min. The supernatant was collected, added with water in 3 times the amount, and mixed. An appropriate amount of the mixture was taken for LC-MS/MS analysis. The main pharmacokinetic parameters were analyzed using WinNonlin 7.0 software with non-compartmental model.

[5] = tested on: Mia Paca-2 pancreatic cancer; test: Mia Paca-2 pancreatic cancer in vivo efficacy test; set-up: species or system mice
Procedure: as §1, with “of mice, Mia Paca-2 cells in” for “of mice, LOVO cells in”, “in serum-free DMEM, and then mixed with Matrigel in a ratio of 1:1.1×10^7 Mia Paca-2 cells were” for “in serum-free F12K, 5×10^6 LOVO cells were”, “administration group (single drug, in combination with trametinib) based on” for “administration group based on”

[6] = tested on: ERK phosphorylation level in DLD-1 cells; test: Inhibition of ERK phosphorylation level in DLD-1 cells (intracellular western blot); format: cell-based; conditions: Homo sapiens
Procedure: Intracellular western blot quantitative analysis was used to detect the inhibitory level of compounds on ERK phosphorylation in DLD-1 cells.
DLD-1 cells (ATCC, CCL-221) were seeded in a T75 culture flask at 2.5×10^6 cells/flask and cultured in a RPMI 1640 medium containing 10% FBS for 2 days. On day 3, the cells were seeded on a 384-well plate, and cultured overnight at 37° C., 5% CO2. After overnight culture, the plate was added with serially diluted compounds (the final content of DMSO was 0.5%), the negative group was added with DMSO, and incubated in a 37° C., 5% CO2 incubator.
The cells were fixed, washed once with PBS, treated to disrupt membranes, and blocked at room temperature for 1 h. The blocking solution was removed. The plate was added with primary antibody (CST, Cat. No. #4370S), and incubated overnight at 4° C. The plate was washed 3 times with PBST (PBS solution added with 0.05% Tween-20) and soaked for 2 min each time. The plate was added with secondary antibody (LI-COR, Cat. No. 926-32211) and incubated at room temperature in the dark. The plate was washed 3 times with PBST and soaked for 2 min each time. The plate was centrifuged at 1000 rpm for 1 min, scanned on a two-color infrared laser imaging system (Odyssey® CLX) to read the signal.
Relative signal=800-channel signal values/700-channel signal values.
Relative expression level of ERK phosphorylation=(test compound−control compound I)/(DMSO group−control compound I)
as §2

[7] = Plasma protein binding by equilibrium dialysis, human plasma; format: in vitro ADME; conditions: 37° C., read-out: Free fraction in plasma, Human (%)
Procedure: (§3) Plasma protein binding rate of compounds was detected by equilibrium dialysis (HTDialysis, HTD 96b). The compound was prepared into a […] stock solution with DMSO, and then 25-fold diluted with 0.05 M sodium phosphate buffer as a working solution. A blank 96-well plate was taken and preloaded with 380 μL of plasma per well. The plasma was then added with the working solution at 20 μL/well and mixed well, with the compound at a final concentration of 1 μM, containing 0.2% DMSO per well.
(§4) 100 μL of 0.05 M sodium phosphate buffer was added to the reception-side of each dialysis chamber (HTD 96b), and then 100 μL of plasma containing the compound was added to the supply-side. The dialysis chamber was covered with a plastic lid, shaken and incubated at 37° C. for 5 h.
(§5) After incubation, 25 μL of samples were taken from each of the supply-side and the reception-side of the dialysis chamber and placed in the blank 96-well plate. An equal volume of plasma was added to each of the supply-side samples while an equal volume of 0.05 M sodium phosphate buffer was added to each of the reception-side samples and mixed well. The 96-well plate was added with an acetonitrile solution containing internal standard at 200 μL per well, vortexed and shaken at 600 rpm for 10 min, and centrifuged at 5594 g for 15 min (Thermo Multifuge×3R). 50 μL of the supernatant was then transferred to a new 96-well plate, and the samples were mixed with 50 μL of ultra-pure water for LC-MS/MS analysis.
(§6) Plasma protein binding rate and free fraction were calculated using the following formulas: % binding rate=100×([supply-side concentration]5h−[reception-side concentration]5h)/[supply-side concentration]5h. % free fraction=100−% binding rate.

[8] = Plasma protein binding by equilibrium dialysis, mouse plasma; format: in vitro ADME; conditions: 37° C., read-out: Free fraction in plasma, Mouse (%)
Procedure: as §3, §4, §5, §6

[9] = Human liver microsome stability test; format: in vitro ADME; conditions: human, human liver microsomes
Procedure: The human liver microsome stability test was performed by incubating the compound and human liver microsomes in vitro. First, the compound to be tested was prepared into a 10 mM stock solution in DMSO solvent, and then the compound was diluted to 0.5 mM with acetonitrile. Human liver microsomes (Corning) were diluted with PBS into a microsome/buffer solution, and the solution was used to dilute 0.5 mM compound into a working solution, in which the concentration of the compound was 1.5 μM, and the concentration of human liver microsomes was 0.75 mg/mL. A deep-well plate was taken, 30 μL of the working solution was added per well, and then 15 μL of pre-heated 6 mM NADPH solution was added thereto to initiate a reaction, and the reaction was incubated at 37° C. At 0, 5, 15, 30 and 45 min of the incubation, 135 μL of acetonitrile was added to the corresponding wells to terminate the reaction. After the reaction was terminated with acetonitrile at the last time point of 45 min, the deep-well plate was vortexed and vibrated for 10 min (600 rpm/min), and then centrifuged for 15 min. After centrifugation, the supernatant was collected, and added with purified water in a ratio of 1:1 to perform LC-MS/MS detection. A ratio of a peak area of compound to a peak area of internal standard at each time point was obtained, and the peak area ratios of the compound at 5, 15, 30 and 45 min were compared with the peak area ratio at 0 min to calculate the remaining percentage of the compound at each time point. T1/2 was calculated by using GraphPad 5 software.

Sequence of KRAS G12C-SOS1 (Q07889 whole entry, stated change not applied): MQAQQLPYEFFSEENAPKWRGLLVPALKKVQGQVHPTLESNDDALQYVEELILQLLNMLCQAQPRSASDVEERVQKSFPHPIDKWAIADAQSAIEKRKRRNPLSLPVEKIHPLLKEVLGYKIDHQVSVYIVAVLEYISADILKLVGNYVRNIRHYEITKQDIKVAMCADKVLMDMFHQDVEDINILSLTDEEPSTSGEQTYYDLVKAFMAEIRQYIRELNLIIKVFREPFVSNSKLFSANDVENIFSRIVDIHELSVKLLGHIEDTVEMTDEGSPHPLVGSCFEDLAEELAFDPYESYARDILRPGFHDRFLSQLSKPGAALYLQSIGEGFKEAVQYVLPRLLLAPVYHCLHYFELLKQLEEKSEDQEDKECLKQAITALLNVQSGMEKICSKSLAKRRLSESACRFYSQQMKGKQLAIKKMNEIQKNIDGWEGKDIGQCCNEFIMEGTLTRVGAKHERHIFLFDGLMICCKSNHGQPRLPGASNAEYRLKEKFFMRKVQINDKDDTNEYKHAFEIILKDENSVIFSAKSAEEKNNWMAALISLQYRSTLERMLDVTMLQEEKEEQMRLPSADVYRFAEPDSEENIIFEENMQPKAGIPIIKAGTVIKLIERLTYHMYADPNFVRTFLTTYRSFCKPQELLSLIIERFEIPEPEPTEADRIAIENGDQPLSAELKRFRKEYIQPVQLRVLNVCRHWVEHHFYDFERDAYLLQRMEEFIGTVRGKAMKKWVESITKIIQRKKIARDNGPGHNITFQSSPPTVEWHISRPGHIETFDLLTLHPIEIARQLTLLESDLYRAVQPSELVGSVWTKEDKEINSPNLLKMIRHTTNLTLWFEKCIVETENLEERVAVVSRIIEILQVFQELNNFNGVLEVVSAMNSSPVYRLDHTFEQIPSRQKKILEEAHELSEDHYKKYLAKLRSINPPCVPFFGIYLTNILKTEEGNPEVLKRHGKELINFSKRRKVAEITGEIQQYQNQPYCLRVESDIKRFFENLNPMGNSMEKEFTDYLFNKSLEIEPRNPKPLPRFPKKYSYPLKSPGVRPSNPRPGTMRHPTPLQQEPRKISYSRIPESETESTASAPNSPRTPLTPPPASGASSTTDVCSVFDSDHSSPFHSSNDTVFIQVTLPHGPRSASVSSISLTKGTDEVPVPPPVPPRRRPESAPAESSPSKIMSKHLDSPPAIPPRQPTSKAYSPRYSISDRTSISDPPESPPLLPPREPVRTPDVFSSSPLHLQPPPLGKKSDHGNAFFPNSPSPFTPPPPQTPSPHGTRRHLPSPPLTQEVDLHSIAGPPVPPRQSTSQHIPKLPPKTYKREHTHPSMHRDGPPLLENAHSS

Row | Structure (SMILES) | Average tumor weight at the end of the treatment [1] [g] | Tumor weight inhibition rate (relative to the vehicle group) [1] [%] | IC50 [2] [nM] | IC50 [3] [nM] | AUC(0-t) [4] [ng·h/mL] | Cmax [4] [ng/mL] | Tmax [4] [h] | half-life [4] [h] | Average tumor weight at the end of the treatment ([5]; Mia Paca-2, 25 mg/kg BID) [g] | Tumor weight inhibition rate (relative to the vehicle group) ([5]; Mia Paca-2, 25 mg/kg BID) [%] | Average tumor weight at the end of the treatment ([5]; Mia Paca-2, 50 mg/kg BID) [g] | Tumor weight inhibition rate (relative to the vehicle group) ([5]; Mia Paca-2, 50 mg/kg BID) [%] | IC50 [6] [nM] | fraction unbound at 5 h, 1 µM [7] | fraction unbound at 5 h, 1 µM [8] | half-life at 1 µM [9] [h]
1 | Cc1nc(N[C@H](C)c2cccc(S(F)(F)(F)(F)F)c2)c2cn(C3(C(F)F)CC3)c(=O)cc2n1 [Compound I-23, (R)-6-(1-(difluoromethyl)cyclopropyl)-2-methyl-4-((1-(3-(pentafluorosulfanyl)phenyl)ethyl)amino)pyrido[4,3-d]pyrimidin-7(6H)-one] | 0.65 | 53 | 12 | 4.9 | 44100 | 4240 | 2 | 2.33 | 0.45 | 61 | 0.38 | 67 | 159 |  |  | 
2 | Cc1nc(N[C@H](C)c2cccc(C(F)(F)F)c2C)c2cn(C3(CF)CC3)c(=O)cc2n1 [Control compound I, reference compound] |  |  |  |  | 365 | 176 | 0.25 | 1.35 |  |  |  |  |  | 0.009 | 0.005 | 1.07
3 | Cc1nc(N[C@H](C)c2cccc(S(=O)(=O)C(F)F)c2F)c2cn(C3(CF)CC3)c(=O)cc2n1 [Compound I-5, (R)-4-((1-(3-((difluoromethyl)sulfonyl)-2-fluorophenyl)ethyl)amino)-6-(1-(fluoromethyl)cyclopropyl)-2-methylpyrido[4,3-d]pyrimidin-7(6H)-one] |  |  |  | 10 |  |  |  |  |  |  |  |  |  | 0.077 | 0.114 | 
